The numbers were not newly measured in patent US20190151293A1, “PHARMACEUTICAL COMPOSITION COMPRISING A NON-PURINE SELECTIVE INHIBITOR OF XANTHINE OXIDASE AND METHOD FOR THE PREPARATION THEREOF” (PHARMATHEN S.A., priority 2016, published 2019), which cites them from elsewhere.

Data set [1] has as its system other enzymes involved in purine or pyrimidine metabolism. The settings on record: at therapeutic concentrations.
In a further data set the target is xanthine oxidase (XO) (Homo sapiens, UniProt P47989). The conditions noted are these: oxidised and reduced forms of XO.

The structures appear in SMILES notation. Where two headings read alike, the source gives them in different places.

Sequence of xanthine oxidase (XO) (P47989 whole entry): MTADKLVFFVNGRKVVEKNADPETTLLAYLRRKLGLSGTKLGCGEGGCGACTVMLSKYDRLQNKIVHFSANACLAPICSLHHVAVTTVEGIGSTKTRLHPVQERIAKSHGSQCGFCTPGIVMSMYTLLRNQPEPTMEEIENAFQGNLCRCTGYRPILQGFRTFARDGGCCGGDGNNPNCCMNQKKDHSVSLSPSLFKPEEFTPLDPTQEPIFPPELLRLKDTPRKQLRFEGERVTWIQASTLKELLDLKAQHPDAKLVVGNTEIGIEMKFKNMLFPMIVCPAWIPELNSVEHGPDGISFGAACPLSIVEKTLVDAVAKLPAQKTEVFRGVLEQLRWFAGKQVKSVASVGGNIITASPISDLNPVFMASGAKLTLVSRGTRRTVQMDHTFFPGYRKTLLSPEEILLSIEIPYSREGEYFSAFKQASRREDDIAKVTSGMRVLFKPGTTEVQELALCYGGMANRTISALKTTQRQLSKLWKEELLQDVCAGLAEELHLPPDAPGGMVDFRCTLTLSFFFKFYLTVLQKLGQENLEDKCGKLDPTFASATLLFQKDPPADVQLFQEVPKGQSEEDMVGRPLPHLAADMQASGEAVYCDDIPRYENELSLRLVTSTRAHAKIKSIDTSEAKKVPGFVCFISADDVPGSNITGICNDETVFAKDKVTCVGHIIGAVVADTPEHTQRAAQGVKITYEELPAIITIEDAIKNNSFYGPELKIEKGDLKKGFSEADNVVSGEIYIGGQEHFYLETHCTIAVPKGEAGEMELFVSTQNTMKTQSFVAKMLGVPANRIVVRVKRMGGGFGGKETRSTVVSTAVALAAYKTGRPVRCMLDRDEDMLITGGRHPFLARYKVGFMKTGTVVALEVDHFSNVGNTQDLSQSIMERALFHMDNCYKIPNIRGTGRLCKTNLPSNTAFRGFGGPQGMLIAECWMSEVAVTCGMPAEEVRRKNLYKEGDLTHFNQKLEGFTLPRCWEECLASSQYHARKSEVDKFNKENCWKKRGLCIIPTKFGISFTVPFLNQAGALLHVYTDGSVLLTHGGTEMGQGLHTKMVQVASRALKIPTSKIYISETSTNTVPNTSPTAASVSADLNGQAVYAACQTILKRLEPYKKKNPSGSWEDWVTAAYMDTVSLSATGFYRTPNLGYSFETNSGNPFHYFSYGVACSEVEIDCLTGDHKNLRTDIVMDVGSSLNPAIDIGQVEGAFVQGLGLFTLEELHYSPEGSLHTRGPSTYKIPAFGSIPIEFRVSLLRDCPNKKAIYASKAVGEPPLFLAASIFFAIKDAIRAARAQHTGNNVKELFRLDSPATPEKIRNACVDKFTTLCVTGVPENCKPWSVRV

Turning to `Cc1nc(-c2ccc(OCC(C)C)c(C#N)c2)sc1C(=O)O` [Febuxostat, 2-(3-cyano-4-isobutoxyphenyl)-4-methyl-1,3-thiazole-5-carboxylic acid], for the setting “higher in alkalic media”, the “Solubility, dependence on pH” value is “pH dependent”. Besides, the Solubility entry is listed as “freely soluble” (in dimethylformamide), “soluble” (in dimethylsulfoxide), “sparingly soluble” (in ethanol) and “practically insoluble” (in water). Further, in data set [1], the “Inhibition of other enzymes involved in purine or pyrimidine metabolism” value is “does not inhibit”. Further, the “Inhibition of XO” value at xanthine oxidase (XO) is “inhibit both the oxidised and reduced forms of XO”.
As for `Cc1nc(-c2ccc(OCC(C)C)c(C#N)c2)sc1C(=O)O` [Form C], the “Solubility of the crystal form, in words” value is “good solubility”.
